Measured values: US5602153A, “Method of using 1-arylheteroarylalkyl substituted-1H-1,2,4-triazole compounds for treatment of a giaucoma disorder” (G.D. Searle & Co., priority 1993, dated 1997)
Like-named read-outs stand apart in the source and are kept apart here.

How the values were obtained:
[1] = biological target: smooth muscle angiotensin II receptor; assay: Assay A: Angiotensin II Binding Activity (displacement of 125I-AII, rat uterine membrane preparation); conditions: rat uterine membranes, 25 °C, 60 min; read-out: IC50 (50% displacement of total specifically bound 125I-AII)
Experimental: Assay A: Anaiotensin II Binding Activity
Compounds of the invention were tested for ability to bind to the smooth muscle angiotensin II receptor using a rat uterine membrane preparation. Angiotensin II (AII) was purchased from Peninsula Labs. ^125 I-angiotensin II (specific activity of 2200 Ci/mmol) was purchased from Du Pont-New England Nuclear. Other chemicals were obtained from Sigma Chemical Co. This assay was carried out according to the method of Douglas et al [Endocrinology, 106, 120-124 (1980)]. Rat uterine membranes were prepared from fresh tissue. All procedures were carried out at 4° C. Uteri were stripped of fat and homogenized in phosphate-buffered saline at pH 7.4 containing 5 mM EDTA. The homogenate was centrifuged at 1500×g for 20 min., and the supernatant was recentrifuged at 100,000×g for 60 min. The pellet was resuspended in buffer consisting of 2 mM EDTA and 50 mM Tris-HCl (pH 7.5) to a final protein concentration of 4 mg/ml. Assay tubes were charged with 0.25 ml of a solution containing 5 mM MgCl2, 2 mM EDTA, 0.5% bovine serum albumin, 50 mM Tris-HCl, pH 7.5 and ^125 I-AII (approximately 10^5 cpm) in the absence or in the presence of unlabelled ligand. The reaction was initiated by the addition of membrane protein and the mixture was incubated at 25° C. for 60 min. The incubation was terminated with ice-cold 50 mM Tris-HDl (pH 7.5) and the mixture was filtered to separate membrane-bound labelled peptide from the free ligand. The incubation tube and filter were washed with ice-cold buffer. Filters were assayed for radioactivity in a Micromedic gamma counter. Nonspecific binding was defined as binding in the presence of 10 μM of unlabelled AII. Specific binding was calculated as total binding minus nonspecific binding. The receptor binding affinity of an AII antagonist compound was indicated by the concentration (IC50) of the tested AII antagonist which gives 50% displacement of the total specifically bound ^125 I-AII from the high affinity AII receptor. Binding data were analyzed by a nonlinear least-squares curve fitting program.

rabbit aortic rings = biological target: T1, rabbit aortic rings (Oryctolagus cuniculus, UniProt P34976); assay: Assay B: In Vitro Vascular Smooth Muscle-Response for AII (antagonist activity in rabbit aortic rings); type: cell-based, rabbit (male New Zealand white); conditions: antagonist 10^-5 M for 5 min, AII challenge
T1 construct: The thoracic aorta was removed, cleaned of adherent fat and connective tissue; from tissue; host or cells: thoracic aorta rings, endothelium removed, male New Zealand white rabbit
T1 sequence (P34976 1-359): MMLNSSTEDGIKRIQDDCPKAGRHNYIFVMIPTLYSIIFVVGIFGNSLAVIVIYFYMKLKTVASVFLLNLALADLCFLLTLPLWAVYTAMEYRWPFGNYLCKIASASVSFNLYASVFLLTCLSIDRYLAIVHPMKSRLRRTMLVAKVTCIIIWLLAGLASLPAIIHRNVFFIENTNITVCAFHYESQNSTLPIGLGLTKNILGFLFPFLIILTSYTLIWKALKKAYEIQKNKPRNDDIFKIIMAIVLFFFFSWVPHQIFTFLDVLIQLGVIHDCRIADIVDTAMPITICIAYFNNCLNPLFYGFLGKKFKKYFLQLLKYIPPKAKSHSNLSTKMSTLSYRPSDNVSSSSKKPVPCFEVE
Experimental: Assay B: In Vitro Vascular Smooth Muscle-Response for AII The compounds of the invention were tested for antagonist activity in rabbit aortic rings. Male New Zealand white rabbits (2-2.5 kg) were sacrificed using an overdose of pentobarbital and exsanguinated via the carotid arteries. The thoracic aorta was removed, cleaned of adherent fat and connective tissue and then cut into 3-mm ring segments. The endothelium was removed from the rings by gently sliding a rolled-up piece of filter paper into the vessel lumen. The rings were then mounted in a water-jacketed tissue bath, maintained at 37° C., between moveable and fixed ends of a stainless steel wire with the moveable end attached to an FT03 Grass transducer coupled to a Model 7D Grass Polygraph for recording isometric force responses. The bath was filled with 20 ml of oxygenated (95% oxygen/5% carbon dioxide) Krebs solution of the following composition (mM): 130 NaCl, 15 NaHCO3, 15 KCl, 1.2 NaH2 PO4, 1.2 MgSO4, 2.5 CaCl2, and 11.4 glucose. The preparations were equilibrated for one hour before approximately one gram of passive tension was placed on the rings. Angiotensin II concentration-response curves were then recorded (3×10^-10 to 1×10^-5 M). Each concentration of AII was allowed to elicit its maximal contraction, and then AII was washed out repeatedly for 30 minutes before rechallenging with a higher concentration of AII. Aorta rings were exposed to the test antagonist at 10^-5 M for 5 minutes before challenging with AII. Adjacent segments of the same aorta ring were used for all concentration-response curves in the presence or absence of the test antagonist. The effectiveness of the test compound was expressed in terms of pA2 values and were calculated according to H.O. Schild [Br. J. Pharmacol. Chemother., 2, 189-206 (1947)]. The pA2 value is the concentration of the antagonist which increases the EC50 value for AII by a factor of two. Each test antagonist was evaluated in aorta rings from two rabbits.

[2] = first of two rabbits, read-out: pA2 (first value) (converted)
[3] = second of two rabbits, read-out: pA2 (converted)

SMILES | IC50 [1] [µM] | Kb (rabbit aortic rings; [2]) [µM] | Kb (rabbit aortic rings; [3]) [µM]
CCCc1nc(CCC)n(Cc2ccc(-c3ccccc3-c3nnn[nH]3)nc2)n1 [Example 8, 5-[2-[5-[(3,5-dipropyl-1H-1,2,4triazol-1-yl)methyl]-2-pyridinyl]phenyl]-1H-tetrazole] | 0.072 | 0.0347 | 0.0257
CCCCc1nc(CCCC)n(Cc2ccc(-c3ncccc3-c3nnn[nH]3)cc2)n1 [Example 7, 5-[2-[4-[(3,5-dibutyl-1H-1,2,4-triazol-1-yl)methyl]phenyl]-3-pyridinyl]-1H-tetrazole] | 0.098 | 0.229 | 0.0912
CCCCc1nc(CC(CC)CC)nn1Cc1ccc(-c2ccccc2-c2nnn[nH]2)nc1 [Example 13, 5-[2-[5-[[3-(2-ethylbutyl)-5-butyl-1H-1,2,4-triazol-1-yl)methyl]-2-pyridinyl]phenyl]-1H-tetrazole] | 0.025 |  | 
CCCCc1nc(CC(CC)CC)n(Cc2ccc(-c3ccccc3-c3nnn[nH]3)nc2)n1 [Example 14, 5-[2-[5-[[3-butyl-5-(2-ethylbutyl)-1H-1,2,4-triazol-1-yl)methyl]-2-pyridinyl]phenyl]-1H-tetrazole] | 0.013 |  | 
CCCCc1nc(CCc2ccccc2)nn1Cc1ccc(-c2ccccc2-c2nnn[nH]2)nc1 [Example 15, 5-[2-[5-[[3-(2-phenylethyl)-5-butyl-1H-1,2,4-triazol-1-yl)methyl]-2-pyridinyl]phenyl]-1H-tetrazole] | 0.0026 |  | 
CCCCc1nc(CCCC)n(Cc2ccc(-c3cnccc3-c3nnn[nH]3)cc2)n1 [Example 6, 5-[3-[4-[(3,5-dibutyl-1H-1,2,4-triazol-1-yl)methyl]phenyl]-4-pyridinyl]-1H-tetrazole] | 0.15 | 0.0676 | 0.0676
CCCCc1nc(C(=O)NC)nn1Cc1ccc(-c2ccccc2-c2nnn[nH]2)nc1 [Example 19, 5-[2-[5-[[3-(N-methylamido)-5-butyl-1H-1,2,4-triazol-1-yl)methyl]-2-pyridinyl]phenyl]-1H-tetrazole] | 0.16 | 0.234 | 0.209
CCCCc1nc(CCCC)n(Cc2ccc(-c3ccccc3C(=O)O)nc2)n1 [Example 2, 2-[5-[(3,5-dibutyl-1H-1,2,4-triazol-1-yl)methyl]-2-pyridinyl]benzoic acid] | 0.12 |  | 
CCCCc1nc(CCCC)n(Cc2ccc(-c3ccncc3-c3nnn[nH]3)cc2)n1 [Example 5, 5-[4-[4-[(3,5-dibutyl-1H-1,2,4-triazol-1-yl)methyl]phenyl]-3-pyridinyl]-1H-tetrazole] | 0.25 |  | 
CCCCc1nc(CCc2ccccc2)n(Cc2ccc(-c3ccccc3-c3nnn[nH]3)nc2)n1 [Example 16, 5-[2-[5-[[3-butyl-5-(2-phenylethyl)-1H-1,2,4-triazol-1-yl)methyl]-2-pyridinyl]phenyl]-1H-tetrazole] | 0.072 |  | 
CCCCc1nc(C(=O)NC)n(Cc2ccc(-c3ccccc3-c3nnn[nH]3)nc2)n1 [Example 20, 5-[2-[5-[[3-butyl-5-(N-methylamido)-1H-1,2,4-triazol-1-yl)methyl]-2-pyridinyl]phenyl]-1H-tetrazole] | 0.35 | 0.145 | 0.145
CCCCc1nc(CCCC)n(Cc2ccc(-c3cccnc3-c3nnn[nH]3)cc2)n1 [Example 4, 5-[3-[4-[(3,5-dibutyl-1H-1,2,4-triazol-1-yl)methyl]phenyl]-2-pyridinyl]-1H-tetrazole] | 0.11 | 0.0776 | 0.251
CCCCc1nc(-c2ccccc2)nn1Cc1ccc(-c2ccccc2-c2nnn[nH]2)nc1 [Example 21, 5-[2-[5-[(3-phenyl-5-butyl-1H-1,2,4-triazol-1-yl)methyl]-2-pyridinyl]phenyl]-1H-tetrazole] | 0.054 |  | 

Now from value to molecule:

IC50 [1] [µM] | Kb (rabbit aortic rings; [2]) [µM] | Kb (rabbit aortic rings; [3]) [µM] | SMILES
0.018 |  |  | CCCCc1nc(-c2ccccc2C)nn1Cc1ccc(-c2ccccc2-c2nnn[nH]2)nc1 [Example 23, 5-[2-[5-[[3-(2-methylphenyl)-5-butyl-1H-1,2,4-triazol-1-yl)methyl]-2-pyridinyl]phenyl]-1H-tetrazole]
0.057 |  |  | CCCCc1nc(-c2ccccc2C(C)C)nn1Cc1ccc(-c2ccccc2-c2nnn[nH]2)nc1 [Example 25, 5-[2-[5-[[3-(2-isopropylphenyl)-5-butyl-1H-1,2,4-triazol-1-yl)methyl]-2-pyridinyl]phenyl]-1H-tetrazole]
0.22 |  |  | CCCCc1nc(-c2ccccc2)n(Cc2ccc(-c3ccccc3-c3nnn[nH]3)nc2)n1 [Example 22, 5-[2-[5-[(3-butyl-5-phenyl-1H-1,2,4-triazol-1-yl)methyl]-2-pyridinyl]phenyl]-1H-tetrazole]
0.0097 |  |  | CCCCc1nc(-c2c(F)cccc2F)nn1Cc1ccc(-c2ccccc2-c2nnn[nH]2)nc1 [Example 31, 5-[2-[5-[[3-(2,6-difluorophenyl)-5-butyl-1H-1,2,4-triazol-1-yl)methyl]-2-pyridinyl]phenyl]-1H-tetrazole]
0.011 |  |  | CCCCc1nc(-c2ccccc2C(C)C)n(Cc2ccc(-c3ccccc3-c3nnn[nH]3)nc2)n1 [Example 26, 5-[2-[5-[[3-butyl-5-(2-isopropylphenyl)-1H-1,2,4-triazol-1-yl)methyl]-2-pyridinyl]phenyl]-1H-tetrazole]
0.021 |  |  | CCCCc1nc(-c2c(F)cccc2F)n(Cc2ccc(-c3ccccc3-c3nnn[nH]3)nc2)n1 [Example 32, 5-[2-[5-[[3-butyl-5-(2,6-difluorophenyl)-1H-1,2,4-triazol-1-yl)methyl]-2-pyridinyl]phenyl]-1H-tetrazole]
0.53 |  | 0.603 | CCCCc1nc(-c2ccccc2C)n(Cc2ccc(-c3ccccc3-c3nnn[nH]3)nc2)n1 [Example 24, 5-[2-[5-[[3-butyl-5-(2-methylphenyl)-1H-1,2,4-triazol-1-yl)methyl]-2-pyridinyl]phenyl]-1H-tetrazole]
0.11 |  |  | CCCCc1nc(-c2ccccc2OC)nn1Cc1ccc(-c2ccccc2-c2nnn[nH]2)nc1 [Example 27, 5-[2-[5-[[3-(2-methoxyphenyl)-5-butyl-1H-1,2,4-triazol-1-yl)methyl]-2-pyridinyl]phenyl]-1H-tetrazole]
0.29 |  |  | CCCCc1nc(-c2ccccc2OC)n(Cc2ccc(-c3ccccc3-c3nnn[nH]3)nc2)n1 [Example 28, 5-[2-[5-[[3-butyl-5-(2-methoxyphenyl)-1H-1,2,4-triazol-1-yl)methyl]-2-pyridinyl]phenyl]-1H-tetrazole]
